Usually kinetic solubility stands for the concentration staying in solution when a stock, usually in DMSO, is diluted into the medium.

Each structure is given as a SMILES string. ≈ marks a conversion by molar mass, not a printed value. A value given as a limit tells only on which side of the number the result lay.

The conditions of this data set: buffer; pH 7.4; 200.0 µM.
The compound `Cc1cc(C)c2c(CC(=O)NCCc3ccccc3)coc2c1` yielded a solubility (kinetic) of less than 0.7 µg/mL.

In the case of `CCOc1ccc(C(=O)CCC(=O)Nc2ccncc2)cc1`, the solubility (kinetic) was found to be 42.9 µg/mL (≈ 144 µM).

As to `O=C(COC(=O)c1cc(Cl)nc(Cl)c1)Nc1ccc(Cl)c(S(=O)(=O)N2CCOCC2)c1`, the kinetic solubility is 31.7 µg/mL (≈ 62.3 µM).

On to `COc1ccccc1C(=O)CSc1nccn1C`, for which the solubility (kinetic) turned out to be 35.9 µg/mL (≈ 137 µM).

As to `CCOc1ccc(C(=O)OCC(=O)NCC2CCCO2)cc1` (stereo not given), the kinetic solubility was greater than 46.1 µg/mL.

Regarding `Cc1cccc(N=C2NC(=O)C(CO)(CO)S2)c1`, the solubility (kinetic) is 22.4 µg/mL (≈ 84.1 µM).

On to `O=C1NCCCCC1NS(=O)(=O)c1ccccc1` (stereo not given), for which the kinetic solubility was greater than 40.2 µg/mL.

In turn, `Cc1ccccc1Nc1nc(-c2cccnc2)cs1` had a kinetic solubility of 11.2 µg/mL (≈ 41.9 µM).

`COc1ccc(OCC(O)CNC(=O)Nc2ccc(C(C)(C)C)cc2)cc1` (stereo not given) showed a solubility (kinetic) of less than 0.4 µg/mL.

`Cc1ccc(C(=O)Nc2ccc(C)c(S(=O)(=O)N3CCOCC3)c2)c(C)c1`: the kinetic solubility stood at 37.9 µg/mL (≈ 97.6 µM).

Take `O=C(CCC(=O)Nc1cccc(C(F)(F)F)c1)NCC1CCCO1` (stereo not given): the solubility (kinetic) was greater than 51.6 µg/mL.

Turning to `CCOC(=O)c1ccc(Nc2ncccc2[N+](=O)[O-])cc1`, the solubility (kinetic) came out at 1 µg/mL (≈ 3.48 µM).

In turn, `CC(=O)Nc1ccc(S(=O)(=O)NC2C3(C)CCC(C3)C2(C)C)cc1` (stereo not given) showed a solubility (kinetic) of less than 0.4 µg/mL.

On to `Cc1ccc(NC(=O)Nc2ccc3c(c2)CCC3)cc1C`, for which the solubility (kinetic) is less than 0.3 µg/mL.

In turn, `O=C(NCCC(=O)N1CCCCCCC1)c1ccc(Cl)cc1` showed a kinetic solubility greater than 48.4 µg/mL.

For the compound `COc1ccc(CNC(=O)c2cc3cc(OC)ccc3oc2=O)cc1`, the solubility (kinetic) was less than 0.7 µg/mL.

For `CC(=O)Nc1ccc(N/C=C/C(=O)c2ccccc2)cc1`, the solubility (kinetic) came out at 4.1 µg/mL (≈ 14.6 µM).

Compound `Cc1ccc2nc(-c3ccccc3)c(-c3ccccc3)nc2c1` returned a solubility (kinetic) of less than 0.3 µg/mL.

`N#C/C(=C(/O)c1ccc(Cl)cc1)c1nc2ccccc2[nH]1`: the kinetic solubility was less than 0.2 µg/mL.

Compound `Cc1noc(C)c1C(=O)OCC(=O)Nc1ncc(Cl)c(C)c1Cl` registered a solubility (kinetic) greater than 53.7 µg/mL.

With `COc1ccc(S(=O)(=O)n2cccc2)cc1`, the kinetic solubility turned out to be 4.2 µg/mL (≈ 17.7 µM).

In the case of `Clc1ccccc1-c1ncc(-c2ccccc2)o1`, the kinetic solubility is less than 0.5 µg/mL.

With `Cc1cccc(OCCn2ccnc2)c1C`, the kinetic solubility was found to be 22.7 µg/mL (≈ 105 µM).

Consider `O=C1NC(=O)N(Cc2ccccc2)C(=O)/C1=C/C=C/c1ccco1`, for which the solubility (kinetic) came to 8.8 µg/mL (≈ 27.3 µM).

With `O=C(NCCNC(=O)c1cccc(O)c1)c1cccc(O)c1`, the kinetic solubility is greater than 45 µg/mL.

`COc1ccc(CC(=O)OC(C)C(=O)Nc2c(C)n(C)n(-c3ccccc3)c2=O)cc1OC` (stereo not given) gave a solubility (kinetic) greater than 68 µg/mL.

Regarding `O=C(NC1CCCCCC1)C(Cc1ccccc1)n1cccc1` (stereo not given), the kinetic solubility is 10.6 µg/mL (≈ 34.1 µM).

In turn, `O=C(N/N=C/c1ccco1)c1ccc2nc[nH]c2c1` had a kinetic solubility greater than 38.1 µg/mL.

For the compound `CC1CC(C)CN(C(=O)c2cc3ccccc3o2)C1` (stereo not given), the kinetic solubility is 28.7 µg/mL (≈ 112 µM).

With `CC(=O)c1ccc(Nc2c([N+](=O)[O-])ccc3nonc23)cc1`, the solubility (kinetic) was less than 0.2 µg/mL.

Regarding `CCCCNC(=O)Nc1ccc(C2SCCS2)cc1`, the solubility (kinetic) worked out at 9.9 µg/mL (≈ 33.4 µM).

Regarding `Cc1ccc(S(=O)(=O)NCc2ccccc2)cc1C(=O)NCc1ccccn1`, the kinetic solubility was 48.1 µg/mL (≈ 122 µM).

`Cc1cccc(C)c1Nc1c(-c2ccccc2O)nc2ncccn12` came in with a solubility (kinetic) of 0.4 µg/mL (≈ 1.21 µM).

As to `O=C(CSc1ccccc1)Nc1ccc2c(c1)OCO2`, the solubility (kinetic) came out at 41.8 µg/mL (≈ 145 µM).

`CC1=NOC(=O)/C1=C/c1ccc(O)c(Br)c1` returned a kinetic solubility of 32.4 µg/mL (≈ 115 µM).

Take `CC(C)c1cc(=O)[nH]c(SCC(=O)NC2CCCC2)n1`: the kinetic solubility was greater than 44.3 µg/mL.

The compound `CN(C(=O)Cn1cc(C#N)c2ccccc21)c1ccccc1` gave a solubility (kinetic) of 7.4 µg/mL (≈ 25.6 µM).

In turn, `COc1ccccc1CCC(=O)N(C)CC(=O)Nc1ccc(F)cc1` had a kinetic solubility of 20.4 µg/mL (≈ 59.2 µM).

`CC(=O)c1ccccc1NS(=O)(=O)c1ccc2c(c1)CC(=O)N2` displayed a solubility (kinetic) of 29.9 µg/mL (≈ 90.5 µM).

For `CCCn1c(SCC(=O)Nc2ccc(Cl)cc2F)nc(O)cc1=O`, the solubility (kinetic) was greater than 55.8 µg/mL.

For `CSc1ccccc1NC(=O)CN(C)C(=O)COc1cccc2cccnc12`, the solubility (kinetic) is greater than 59.3 µg/mL.

In turn, `COC(=O)Cc1cc(=O)[nH]c(/N=C(\N)Nc2cccc(C)c2)n1` registered a kinetic solubility of 10.7 µg/mL (≈ 33.9 µM).

Compound `COc1ccc(OC)c(C(=O)CN2C(=O)C(=O)N(C3CCCC3)C2=O)c1` gave a solubility (kinetic) of 41.3 µg/mL (≈ 115 µM).

Compound `O=c1cc(COc2ncnc3ccccc23)nc2sccn12` registered a solubility (kinetic) greater than 46.5 µg/mL.

`COc1ccccc1C1=NC(c2ccccc2)CN1c1ccccc1` (stereo not given) registered a kinetic solubility of 0.6 µg/mL (≈ 1.83 µM).

Compound `Cc1ccc2[nH]c(C(=O)NCCN3CCCC3)cc2c1.Cl` registered a solubility (kinetic) greater than 46.2 µg/mL.

As to `CCN(CC)C(=O)c1sc(NC(=O)C(C)C)c(C#N)c1C`, the kinetic solubility is greater than 46.1 µg/mL.

`CC(C)C(=O)Nc1ccc(N2CCOCC2)c(S(=O)(=O)Nc2ccccc2Cl)c1`: the solubility (kinetic) worked out at 2.8 µg/mL (≈ 6.39 µM).

`N#CCCN1CCN(C(=O)c2c(N)no[n+]2[O-])CC1`: the kinetic solubility was greater than 39.9 µg/mL.

Take `CCOC(=O)c1ccc(NC(=S)Nc2cc(C)cc(C)n2)cc1`: the kinetic solubility is less than 0.2 µg/mL.

In turn, `O=C(Nc1cccc(O)c1)c1cccc(S(=O)(=O)Nc2cccc(O)c2)c1` had a solubility (kinetic) greater than 57.7 µg/mL.

With `Cc1nc(Nc2ccccc2)sc1C(=O)c1ccccc1`, the solubility (kinetic) came out at 2.1 µg/mL (≈ 7.13 µM).

As for `O=S(=O)(O)c1cccnc1SCc1ccccc1`, the solubility (kinetic) stood at 41 µg/mL (≈ 146 µM).

`O=C(Nc1nc2ccc(Cl)cc2s1)C1CC1` registered a solubility (kinetic) of 4.8 µg/mL (≈ 19 µM). This solubility kinetic is about 8.5-fold lower than that of the compound before.

`Cc1ccc(S(=O)(=O)Nc2ccc3ccccc3n2)cc1` gave a solubility (kinetic) of 33.5 µg/mL (≈ 112 µM).

As for `CC1CN(C(=S)Nc2ccccc2)CC(C)O1` (stereo not given), the kinetic solubility amounted to 35.4 µg/mL (≈ 141 µM).

In turn, `CC(C)c1ccc(C(=O)Nc2cccnc2)cc1` displayed a solubility (kinetic) greater than 36 µg/mL.

In turn, `CC1CN=C(N(C(=O)Nc2ccccc2)C(C)c2ccccc2)S1` (stereo not given) yielded a kinetic solubility of 27 µg/mL (≈ 79.5 µM).

`Cc1cc[n+](CCc2ccccc2)cc1C.[Br-]` registered a solubility (kinetic) greater than 43.8 µg/mL.

In turn, `Cc1ccc(C(=O)Nc2cccc3ccccc23)cc1` gave a solubility (kinetic) of 0.8 µg/mL (≈ 3.06 µM).

Take `CCN1CCCC1CNC(=O)C(=O)NC` (stereo not given): the solubility (kinetic) was greater than 32 µg/mL.

`Cc1ccccc1N1C(=O)CSC1=C(C#N)C#N` yielded a solubility (kinetic) greater than 38.3 µg/mL.

As to `O=C(O)c1ccccc1-c1ccccc1C(=O)Nc1ccc(F)cc1`, the kinetic solubility is greater than 50.3 µg/mL.

`CN(C)C1(CNC(=O)Cc2ccccc2F)CCCCC1` had a kinetic solubility of 42.2 µg/mL (≈ 144 µM).

Turning to `CCNC(=O)CSc1nc(-c2ccc(F)cc2)cs1`, the kinetic solubility was determined as 42.8 µg/mL (≈ 144 µM).

Take `COc1cc(C)c(Cl)cc1S(=O)(=O)N1CCSC1`: the solubility (kinetic) turned out to be 33 µg/mL (≈ 107 µM).

For `COc1c(C)cccc1C(=O)NCCCNC(=O)c1ccc(C)nc1`, the solubility (kinetic) was determined as 46.8 µg/mL (≈ 137 µM).

As for `CCOC(=O)c1ccc(NC(=O)CNC(=O)c2ccco2)cc1`, the kinetic solubility was 10.2 µg/mL (≈ 32.2 µM).

As for `Cc1onc(-c2c(Cl)cccc2Cl)c1C(=O)c1ccc(F)cc1`, the solubility (kinetic) is less than 0.7 µg/mL.

`CCn1c(NC(=O)/C=C/c2ccc(F)cc2)nc2ccccc21` gave a solubility (kinetic) of 3.5 µg/mL (≈ 11.3 µM).

The compound `CN(C(=O)CSc1nnc(N)s1)C1CCCCC1` returned a solubility (kinetic) greater than 43 µg/mL.

The compound `COc1ccc([N+](=O)[O-])cc1NC(=O)CCC(=O)c1cccs1` came in with a solubility (kinetic) of 3.8 µg/mL (≈ 11.4 µM).

Regarding `Cc1ccc(C(=O)NCCCNC(=O)c2ccco2)cc1`, the kinetic solubility is greater than 42.9 µg/mL.

`O=C(NCCc1ccccc1)C(=O)Nc1ccc2c(c1)OCCO2` showed a kinetic solubility of less than 0.3 µg/mL.

The compound `O=C(CN1CCN(c2ccc([N+](=O)[O-])cc2)CC1)c1ccccc1` showed a solubility (kinetic) of 22.5 µg/mL (≈ 69.2 µM).

Source of the values: PubChem BioAssay AID1996.
